Test results: patent publication US7713994B2 (Wyeth LLC, priority 2005, dated 2010)
Like-named read-outs stand apart in the source and are kept apart here.

Key:
cyclin E/CDK2 enzyme = molecular target: T1, cyclin E/CDK2 enzyme (Homo sapiens, UniProt P24941); assay: CDK2 ELISA kinase assay (phospho-Rb ser 795 detection); assay type: biochemical
T1 construct: made in house; host or cells: Sf9 insect cells, recombinant baculovirus
In short: (§1)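 Partially purified Sf9-expressed cyclin D1/CDK4, cyclin E/CDK2 or cyclin B/CDK1 phosphorylated plate-bound GST-Rb C-terminal fragment with 200 μM ATP at 30° C for 1 h.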

Cyclin D1/CDK6 = molecular target: T2, Cyclin D1/CDK6 (Homo sapiens, UniProt Q00534); assay: Cyclin D1/CDK6 Elisa; assay type: biochemical; details: 200 μM ATP
T2 construct: made in house; host or cells: Sf9 insect cells, recombinant baculovirus
T2 sequence (Q00534 whole entry, species assumed): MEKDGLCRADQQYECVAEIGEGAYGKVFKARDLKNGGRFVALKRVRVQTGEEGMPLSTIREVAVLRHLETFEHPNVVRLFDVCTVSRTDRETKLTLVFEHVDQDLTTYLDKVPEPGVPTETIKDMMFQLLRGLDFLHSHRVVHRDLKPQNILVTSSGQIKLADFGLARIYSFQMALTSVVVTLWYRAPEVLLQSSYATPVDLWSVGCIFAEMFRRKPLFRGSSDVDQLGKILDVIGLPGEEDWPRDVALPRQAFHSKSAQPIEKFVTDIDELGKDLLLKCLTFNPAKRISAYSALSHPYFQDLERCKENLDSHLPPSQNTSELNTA
T2 sequence (P24385 whole entry partner, species assumed): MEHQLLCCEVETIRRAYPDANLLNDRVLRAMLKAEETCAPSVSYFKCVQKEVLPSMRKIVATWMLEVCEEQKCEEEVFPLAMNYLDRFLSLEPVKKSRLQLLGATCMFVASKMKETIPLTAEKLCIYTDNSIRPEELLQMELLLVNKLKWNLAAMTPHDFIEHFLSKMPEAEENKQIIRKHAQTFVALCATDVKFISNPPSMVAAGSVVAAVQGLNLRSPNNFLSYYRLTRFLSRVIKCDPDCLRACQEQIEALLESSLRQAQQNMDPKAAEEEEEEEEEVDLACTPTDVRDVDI
Procedure: Cyclin D1/CDK6 was expressed in insect cells (Sf9) infected with recombinant baculovirus and partially purified using ammonium sulfate fractionation. Test compounds were diluted in 20% DMSO/20 mM HEPES, pH 7.5 and serial dilutions were prepared (5 concentrations; 0.005-50 µM). High-binding ELISA microtiter plates (Costar) were coated with the kinase substrate (glutathione-S-transferase (GST) fusion of C-terminal fragment of the retinoblastoma susceptibility gene product (Rb). Non-specific binding sites were blocked with Superblock in Tris-buffered saline (TBS; Pierce). Kinase reactions contained the test inhibitor, 200 μM ATP, 0.5 mg/ml bovine serum albumin (BSA; Sigma), and 0.1 μl cyclin D1/cdk 6. Reaction volumes were adjusted to 30 μl with kinase assay buffer (50 mM HEPES, pH 7.5, 10 mM MgCl2, 5% glycerol, 10 mM 2-mercaptoethanol), and plates were incubated at 30° C. for 1 hour. Reactions were terminated by aspiration, and non-specific sites were blocked with blocking buffer (TBS containing 0.1% Tween-20 and 5% nonfat dry milk). Phoshporylation of the substrate was detected using phospho-Rb specific antibodies (ser-795) (Cell Signalling Technologies) and anti-rabbit IgG/horseradish peroxidase conjugates (Amersham Life Science) using TMB as substrate. Colourimetric reactions were stopped with 2N sulphuric acid and the absorbance was measured at 450 nm (Molecular Devices). IC50 values were determined from inhibition plots.

cyclin D1/cdk 4 enzyme = molecular target: T3, cyclin D1/cdk 4 enzyme (Homo sapiens, UniProt P11802); assay: CDK4 ELISA kinase assay (phospho-Rb ser 795 detection); assay type: biochemical
T3 construct: made in house; host or cells: Sf9 insect cells, recombinant baculovirus
T3 sequence (P11802 whole entry, species assumed): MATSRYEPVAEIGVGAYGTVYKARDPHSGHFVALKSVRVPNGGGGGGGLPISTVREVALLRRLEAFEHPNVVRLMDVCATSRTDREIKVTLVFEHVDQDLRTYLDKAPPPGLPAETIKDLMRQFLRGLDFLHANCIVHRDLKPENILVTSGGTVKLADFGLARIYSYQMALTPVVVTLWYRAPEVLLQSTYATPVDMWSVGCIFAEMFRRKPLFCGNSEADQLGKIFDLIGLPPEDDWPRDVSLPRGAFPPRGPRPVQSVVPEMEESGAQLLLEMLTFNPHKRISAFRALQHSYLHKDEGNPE
T3 sequence (P24385 whole entry partner, species assumed): as the sequence (P24385 whole entry partner, species assumed) above
In short: as §1

LoVo = assay: Cytotoxicity assay (SRB), LoVo; assay type: cell-based; details: Homo sapiens, LoVo, 72 h, LoVo cells, SRB, read-out: In Vitro Cellular Activity IC50 LOVO
In short: (§2)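 Plate cells, let them attach overnight, add compound dilutions in RPMI 1640/5% FBS, and incubate 3 days (BT474 6 days). Then fix with TCA, stain with SRB, dissolve the dye in Tris and read at 540 nm.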

HCT-116 = assay: Cytotoxicity assay (SRB), HCT-116; assay type: cell-based; details: Homo sapiens, HCT-116, 72 h, HCT116 cells, SRB, read-out: In Vitro Cellular Activity IC50 HCT116
In short: as §2

MCF-7 = assay: Cytotoxicity assay (SRB), MCF-7; assay type: cell-based; details: Homo sapiens, MCF7, 72 h, MCF-7 cells, SRB, read-out: In Vitro Cellular Activity IC50 MCF-7
In short: as §2

cyclin B/CDK1 enzyme = molecular target: T4, cyclin B/CDK1 enzyme (Homo sapiens, UniProt P06493); assay: CDK1 ELISA kinase assay (phospho-Rb ser 795 detection); assay type: biochemical
T4 construct: purchased New England BioLabs; host or cells: Sf9 insect cells, recombinant baculovirus
T4 sequence (P06493 whole entry): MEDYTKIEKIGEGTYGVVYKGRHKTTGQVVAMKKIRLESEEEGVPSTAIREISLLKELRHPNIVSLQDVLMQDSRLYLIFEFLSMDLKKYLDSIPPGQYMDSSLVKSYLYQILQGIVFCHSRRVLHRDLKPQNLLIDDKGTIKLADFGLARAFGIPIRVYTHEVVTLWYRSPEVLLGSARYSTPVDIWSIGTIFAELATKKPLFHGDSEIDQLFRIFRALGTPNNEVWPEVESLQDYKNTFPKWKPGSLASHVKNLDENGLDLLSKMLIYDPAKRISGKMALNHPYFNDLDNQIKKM
T4 sequence (P14635 whole entry partner): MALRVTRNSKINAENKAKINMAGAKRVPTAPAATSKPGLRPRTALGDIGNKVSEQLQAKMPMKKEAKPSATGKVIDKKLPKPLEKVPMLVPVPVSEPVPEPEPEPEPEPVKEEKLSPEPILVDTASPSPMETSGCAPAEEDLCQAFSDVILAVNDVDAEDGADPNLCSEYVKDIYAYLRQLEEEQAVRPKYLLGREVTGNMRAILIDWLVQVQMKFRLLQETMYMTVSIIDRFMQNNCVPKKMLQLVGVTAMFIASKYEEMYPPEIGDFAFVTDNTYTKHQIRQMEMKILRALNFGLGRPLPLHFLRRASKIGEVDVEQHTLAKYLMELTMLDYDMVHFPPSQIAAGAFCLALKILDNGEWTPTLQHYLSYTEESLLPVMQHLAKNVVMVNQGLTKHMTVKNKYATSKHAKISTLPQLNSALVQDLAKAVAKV
In short: as §1

BT474 = assay: Cytotoxicity assay (SRB), BT474; assay type: cell-based
In short: as §2

SK-UT-1B = assay: Cytotoxicity assay (SRB), SK-UT-1B; assay type: cell-based; details: Homo sapiens, Skut1B; SK-UT-1B cells; read-out: In Vitro Cellular Activity IC50 SK-UT-1B
SK-Br-3 = assay: Cytotoxicity assay (SRB), SK-Br-3; assay type: cell-based; details: Homo sapiens; SK-Br-3 cells; read-out: In Vitro Cellular Activity IC50 SK-Br-3
[1] = In Vitro Enzyme Assays, read-out: CDK2 IC50
[2] = In Vitro Enzyme Assays, 200 μM ATP, read-out: CDK4 IC50
[3] = In Vitro Enzyme Assays, read-out: CDK1 IC50
[4] = Homo sapiens, BT-474, 144 h, BT474 cells, SRB, 6 days; read-out: In Vitro Cellular Activity IC50 BT474
[5] = In Vitro Enzyme Assay, cyclin E/CDK2, read-out: CDK2 IC50
[6] = In Vitro Enzyme Assay, cyclin D1/cdk 4, read-out: CDK4 IC50
[7] = In Vitro Enzyme Assay, cyclin B/CDK1, read-out: CDK1 IC50
[8] = Homo sapiens, BT-474, 144 h, BT474 cells, 6 days, SRB; read-out: In Vitro Cellular Activity IC50 BT474

melting point	IC50 (cyclin E/CDK2 enzyme; [1])	IC50 (Cyclin D1/CDK6)	IC50 (cyclin D1/cdk 4 enzyme; [2])	IC50 (cyclin B/CDK1 enzyme; [3])	IC50 (cyclin E/CDK2 enzyme; [5])	IC50 (cyclin D1/cdk 4 enzyme; [6])	IC50 (cyclin B/CDK1 enzyme; [7])	Structure (SMILES)	IC50 (LoVo; three days)	IC50 (HCT-116; three days)	IC50 (MCF-7; three days)	IC50 (BT474; [4])	IC50 (SK-UT-1B)	IC50 (SK-Br-3)	IC50 (LoVo; 3 days)	IC50 (HCT-116; 3 days)	IC50 (MCF-7; 3 days)	IC50 (BT474; [8])
252 to 253 °C	–	0.001 µM	4 nM	9.7 µM	–	–	–	COc1ccc(CN/C=C2\C(=O)NC(=O)c3ccc(-n4cccc4)cc32)cc1O [Example 71]	3 µM	4.7 µM	7.8 µM	3.8 µM	–	–	–	–	–	–
207 to 208 °C	–	0.02 µM	–	> 50 µM	–	–	–	O=C1NC(=O)c2ccc(-n3cccc3)cc2/C1=C/Nc1ccc(CN2CCCCC2)cc1 [Example 74]	2.4 µM	2.7 µM	2.1 µM	3.3 µM	–	–	–	–	–	–
–	0.87 µM	0.002 µM	10 nM	6 µM	–	–	–	COc1ccc(CN/C=C2\C(=O)NC(=O)c3ccc(I)cc32)cc1O [Example 80, (4Z)-6-Iodo-4-{[(3-hydroxy-4-methoxybenzyl)amino]methylene}isoquinoline-1,3(2H,4H)-dione]	1.5 µM	2 µM	3.7 µM	1.7 µM	–	–	–	–	–	–
202 to 203 °C	20.4 µM	0.03 µM	300 nM	> 50 µM	–	–	–	O=C1NC(=O)c2ccc(I)cc2/C1=C/Nc1ccc(CN2CCCCC2)cc1 [Example 82, (4Z)-6-Iodo-4-({[4-(piperidin-1-ylmethyl)phenyl]amino}methylene)isoquinoline-1,3(2H,4H)-dione]	3.1 µM	2.7 µM	1 µM	0.6 µM	–	–	–	–	–	–
250 to 251 °C	> 50 µM	0.001 µM	2 nM	> 50 µM	–	–	–	COc1cc(CN/C=C2\C(=O)NC(=O)c3ccc(-c4ccccc4)cc32)cc(O)c1OC [Example 86]	3.7 µM	4.5 µM	5.1 µM	3.2 µM	–	–	–	–	–	–
–	–	–	–	–	2.5 µM	17900 nM	> 50 µM	Nc1ccc(NC=C2C(=O)NC(=O)c3ccccc32)cc1 [Example 545, 4-[(4-Amino-phenylamino)-methylene]-4H-isoquinoline-1,3-dione]	–	–	–	–	38.9 µM	> 50 µM	> 50 µM	40.1 µM	> 50 µM	> 50 µM
–	–	–	–	–	12.5 µM	–	–	O=C1NC(=O)c2ccccc2/C1=C/NCc1ccc(O)c(O)c1 [Example 550, 4-[(3,4-Dihydroxy-benzylamino)-methylene]-4H-isoquinoline-1,3-dione]	–	–	–	–	17.3 µM	32.4 µM	46.5 µM	26.6 µM	39.1 µM	36.5 µM
–	–	–	–	–	6.2 µM	11200 nM	34.8 µM	O=C1NC(=O)c2ccccc2C1=CNc1ccc(O)c2ncccc12 [Example 569, 4-[(8-Hydroxy-quinolin-5-ylamino)-methylene]-4H-isoquinoline-1,3-dione]	–	–	–	–	2.2 µM	8.9 µM	> 50 µM	7.1 µM	7.2 µM	14.1 µM
–	> 50 µM	0.002 µM	7 nM	> 50 µM	–	–	–	COc1cc(CN/C=C2\C(=O)NC(=O)c3ccc(Br)cc32)cc(O)c1OC [compound 78]	> 50 µM	> 50 µM	32.5 µM	42 µM	–	–	–	–	–	–

Structure (SMILES)	melting point	IC50 (cyclin E/CDK2 enzyme; [1])	IC50 (Cyclin D1/CDK6)	IC50 (cyclin D1/cdk 4 enzyme; [2])	IC50 (cyclin B/CDK1 enzyme; [3])	IC50 (cyclin E/CDK2 enzyme; [5])	IC50 (cyclin D1/cdk 4 enzyme; [6])	IC50 (cyclin B/CDK1 enzyme; [7])	IC50 (LoVo; three days)	IC50 (HCT-116; three days)	IC50 (MCF-7; three days)	IC50 (BT474; [4])	IC50 (SK-UT-1B)	IC50 (SK-Br-3)	IC50 (LoVo; 3 days)	IC50 (HCT-116; 3 days)	IC50 (MCF-7; 3 days)	IC50 (BT474; [8])
O=C1NC(=O)c2ccc(Cl)cc2/C1=C/Nc1ccc(CN2CCCCC2)cc1 [Example 55, (4Z)-6-Chloro-4-({[4-(piperidin-1-ylmethyl)phenyl]amino}methylene)isoquinoline-1,3(2H,4H)-dione]	225 to 226 °C	> 50 µM	0.12 µM	2500 nM	> 50 µM	–	–	–	7.7 µM	5.7 µM	7 µM	11 µM	–	–	–	–	–	–
COc1ccc(CN/C=C2\C(=O)NC(=O)c3cccc(Br)c32)cc1O [Example 84, (4Z)-5-Bromo-4-{[(3-hydroxy-4-methoxybenzyl)amino]methylene}isoquinoline-1,3(2H,4H)-dione]	204 to 206 °C	3.1 µM	0.07 µM	940 nM	8.1 µM	–	–	–	4.6 µM	3.1 µM	6.7 µM	2.1 µM	–	–	–	–	–	–
